From US11648205B1, “Buccal formulation of avanafil with enhanced bioavailability and prolonged duration” (King Abdulaziz University, priority 2022, dated 2023)
≈ marks a conversion by molar mass, not a printed value.

Assay: Solubility study of AVA-solid dispersions in distilled water
Assay type: physicochemical
Conditions: thermodynamic from solid, shaking water bath 48 h
Description: A solubility study for the prepared solid dispersions was conducted separately in distilled water, as described previously, with full details published (34). In screw-capped vials, 10 mL of distilled water was placed, and an excess amount of either the pure drug or the prepared solid dispersions was added. The vials were kept in a shaking water bath, for 48 h, in a thermostatically controlled shaking water bath (Model 1031; GFL Corporation, Burgwedel, Germany). Samples from the vial were obtained and were determined in triplicate using spectrophotometric assay at λmax 285 nm, and the data were expressed as the average ± the standard deviation. The AVA-solid dispersion with the highest water solubility was determined and selected for further investigations. Powder X-ray Diffraction (PXRD)

solubility at 48 h: 3 µg/mL (≈ 6.2 µM)
SMILES: COc1ccc(CN=c2[nH]c(N3CCC[C@H]3CO)ncc2C(=O)NCc2ncccn2)cc1Cl [AVA, Avanafil]
